The assay relates to appetite of cats. The experiment in a line: Food consumption (appetite) of stressed healthy cats after dose administration. Type of assay: in vivo, cat. The following applies: subcutaneous injection 3.75 mg vs oral 3.75 mg. From the text: The purpose of these tests is to evaluate the effect of administration of mirtazapine by subcutaneous injection on the appetite of cats as compared to dose administration by the oral route (positive control) and a control (injection of saline solution, negative control). The healthy cats selected were previously acclimated for at least seven days prior to testing; during this period, they were examined by a veterinarian. They were then divided into three groups of two cats each according to a cross-over experimental design, with each cat receiving each of the 3 treatments according to a predetermined sequence: • 0.5 ml of saline (0.9% sodium chloride) was administered by subcutaneous injection in the interscapular area to the T0 group which represents the negative control; • the group T1 received a subcutaneous injection, in the interscapular area, of 0.5 ml of the tested formulation of mirtazapine (represents a dose administration of 3.75 mg of mirtazapine); • the group T3 instead received 0.25 ml (represents a dose administration of 3.75 mg of mirtazapine) of the liquid formulation by means of forced administration (syringe) in the mouth and represents the positive control group. […] The food consumption is represented in FIGS. 2A (food consumption measured at each point) and 2B (cumulative food consumption).

Structures are written as SMILES.

As to `CN1CCN2c3ncccc3Cc3ccccc3C2C1` (centres unmarked) [mirtazapine, 1,2,3,4,10,14b-hexahydro-2-methylpyrazino(2,1-a)pyrido(2,3-c)benzazepine], the “duration of appetite induction compared with oral administration” value is reported as “inducing appetite for a longer time period” and the “increase in appetite (food consumption) compared with same dose by oral route” value is given as “as effective as the administration of the same dose by oral route”.

These data come from patent publication US10071102B2, “Injectable mirtazapine for treating appetite loss and nutritional disorders in cats” (VIRBAC, priority 2013, dated 2018).
